Data taken from paper PMC2639753 (Bioorganic & medicinal chemistry, 2008).
pIC50: −log10 of the molar value.

Assays:
HIV-1 (IIIB) = assay: Antiviral activity against HIV-1; conditions: MT-2 cells
HIV-1 RT = HIV-1 RT (Human immunodeficiency virus type 1 group M subtype B, UniProt P03366); assay: In vitro steady-state RT inhibition assay; format: biochemical

With C#CCOc1ccc(OC)cc1CCNC(=S)Nc1ccc(Br)cn1 [6b, N-(5-Bromo-2-pyridinyl)-N′-[2-(5-methoxy-2-propargyloxyphenyl)ethyl]-thiourea] the “activity relative to HI-236 in cell culture” value (HIV-1 (IIIB)) was “equal to HI-236”.
C#CCCOc1ccc(OC)cc1CCNC(=S)Nc1ccc(Br)cn1 [6c, N-(5-Bromo-2-pyridinyl)-N′-{2-[2-(3-butynyl-1-oxy)-5-methoxyphenyl]ethyl}-thiourea] was tested, and the “fold increase in activity compared to HI-236 in the RT assay” value (HIV-1 RT) was 7 fold.
C#CCCCOc1ccc(OC)cc1CCNC(=S)Nc1ccc(Br)cn1 [6d, N-(5-Bromo-2-pyridinyl)-N′-{2-[5-methoxy-2-(4-pentynyl-1-oxy)phenyl]ethyl}-thiourea] was tested, and the “activity relative to HI-236 in the RT assay” value (HIV-1 RT) was “as active as HI-236”.
For C#CCOCCOc1ccc(OC)cc1CCNC(=S)Nc1ccc(Br)cn1 [6i], the “T.I (in vitro therapeutic index CC50/EC50)” value (HIV-1 (IIIB)) was 100.
In the case of COC(=O)COc1ccc(OC)cc1CCNC(=S)Nc1ccc(Br)cn1 [6k, N-(5-Bromo-2-pyridinyl)-N′-[2-(2-methoxycarbonylmethyloxy-5-methoxyphenyl)ethyl]-thiourea], the pIC50 (HIV-1 RT) was 7.00 and the “fold improvement in RT assay over cell culture” value (HIV-1 RT; RT IC50 versus cell-culture EC50) was 120 fold.
For COc1ccc(OCCCC#N)c(CCNC(=S)Nc2ccc(Br)cn2)c1 [6m], the “activity relative to HI-236 in cell culture” value (HIV-1 (IIIB)) was “equal to HI-236”.
For COc1ccc(OCCCO)c(CCNC(=S)Nc2ccc(Br)cn2)c1 [6o], the “activity relative to HI-236 in the RT assay” value (HIV-1 RT) was “as active as HI-236”.
